Test results reported in paper PMC12491518, “Fabrication of cytotoxic mirror image nanopores” (Nature Communications, 2025).
Where no end group is shown, it is not given here.

What was measured:
[1] = Single-channel electrical recordings in planar lipid bilayers; format: biochemical; settings: Supplementary Table 1
Procedure: High-resolution electrical recordings for the single-channel characterization were conducted in planar lipid bilayers made up of 1,2-diphytanoyl-sn-glycero-3-phosphocholine (DPhPC, Avanti Polar Lipids)[23],[27],[51]. The lipid bilayer is formed across a polytetrafluoroethylene (Teflon) aperture of ~100 µm in diameter. Teflon is placed between the two sides of the Delrin bilayer chamber, partitioning it into cis and trans compartments (600 µL each). For constructing a solvent-free lipid bilayer, the aperture is made lipophilic by pre-painting both sides with hexadecane in n-pentane (1 μL, 5 mg mL^−1)[51]. After ~10 min, the chambers were filled with buffered electrolytes (1 M KCl, 10 mM HEPES, pH 7.4), and DPhPC in n-pentane (1 μL, 5 mg mL^−1) was added. After ~15 min incubation, the lipid bilayer is formed by raising and lowering the electrolyte solution, bringing the two lipid monolayers together at the aperture. The cis compartment was connected to the ground electrode, while the trans compartment was connected to the working live electrode. Subsequently, DpPorA or DpPorA DE peptides solubilized in 0.1% DDM (1 µL, 100 µg mL^−1) were consistently introduced into the cis compartment of the bilayer. The peptide pore insertion was facilitated by mixing the bilayer chamber and applying a high voltage of +200 mV. The single-channel electrical properties of the peptide pores and analyte-induced pore blockages were examined in 1 M KCl, 10 mM HEPES, pH 7.4. Ion selectivity was assessed under asymmetric salt conditions with a KCl concentration gradient across the planar lipid bilayer (0.15 M cis/1 M trans) (SI text)[27]. The ion current was acquired and amplified using an Axopatch 200B amplifier, digitized with Digidata 1550B digitizer, and recorded using the pClamp 11 acquisition software (Molecular Devices, CA). The current signals were filtered with a 2 kHz low-pass filter frequency and 10 kHz sampling frequency, or with 10 kHz low-pass filter frequency and 50 kHz sampling frequency, in line with the requirement.

MDA-MB-231 cells = format: cell-based, human; settings: 10 µM and 20 µM, 24 h, MTT, n = 3
Procedure: The MDA-MB-231 cell line was obtained from ATCC (Kind gift from Dr. Annapoorni Rangarajan, Indian Institute of Science, Bengaluru, Karnataka, India) and tested negative for mycoplasma contamination. Cells were cultured in DMEM (Gibco, 11965-092) supplemented with 10% FBS (Thermo Fisher Scientific, 10270-106) and Penicillin (100 Units/mL) /Streptomycin (100 µg/mL) (Thermo Fisher Scientific, 15070-063). […] Cell proliferation was measured 24 h after the addition of Peptide/ DDM using MTT assay (3-(4,5-dimethylthiazol-2-yl)-2,5-diphenyltetrazolium bromide, M6494, Thermo Fischer Scientific). […] The purple-colored formazan crystals were dissolved by adding 100 µL DMSO (D5879, Sigma Aldrich), and the absorbance at 570 nm was measured using a plate reader (EMax plus microplate reader). […]
Immunofluorescence (IF) images were analyzed to assess the impact of different treatments on cell membrane integrity. […] We evaluated a t least 100 cells for each group - Control, DDM-treated cells and peptide-treated cells- with independent analysis done by a student blinded to the groups' identity . […]
indicating a loss of cell membrane integrity. This categorization provided a clear and systematic approach to quantify the effects of various treatments on cell membrane integrity. […]

| Sequence | experimental conductance Gexp [1] | change in cell viability (MDA-MB-231 cells) |
| --- | --- | --- |
| MIDQITEIFGQLGTFLGGFGNIFKGLKDVIETIVKWTAAK [LpPorA] | 3.0 ± 0.2 nS | no significant change in viability |
| MIDQITEIFGQLGTFLGGFGNIFKGLKAVIATIVKWTAAK [LpPorA DE] | 3.8 ± 0.2 nS | – |
